Measurements taken from patent US20210100777A1, “HEAT SHOCK PROTEIN (HSP) INHIBITION AND MONITORING EFFECTIVENESS THEREOF” (H. LEE MOFFITT CANCER CENTER AND RESEARCH INSTITUTE, INC., priority 2013, published 2021).
“Also recorded” adds a separate entry of the source.

Assays:
[1] = test system: vemurafenib resistant melanoma cell lines grown as 3D collagen implanted spheroids; experiment: 3D spheroid assay; assay type: cell-based; conditions: 1 μM, 144 hours
Protocol: 3D spheroid assays. Melanoma spheroids were prepared using the liquid overlay method (Smalley et al. Mol Cancer Ther. 5: 1136-1144 (2006)). Spheroids were treated for 144 hours with either vehicle or 1 μM XL888 before being washed (3 times in media) and treated with calcein-AM and ethidium bromide (Molecular Probes, Eugene, Oreg.) for 1 hour at 37° C., to according to the manufacturer's instructions. Pictures of the invading spheroids were taken using a Nikon-300 inverted fluorescence microscope.

melanoma cell lines = experiment: Colony formation assay; assay type: cell-based; conditions: 300 nM, up to 4 weeks; any of the cell lines
Protocol: Colony formation. Cells (1×10^4 per ml) were grown overnight before being treated with vehicle (DMSO) or XL888 (300 nM) for 4 weeks as described in (Paraiso et al., Br. J. Cancer 102:1724-30 (2010)), and relative colony density was determined by solubilizing the crystal violet dye in 10% acetic acid followed by measurement of absorbance at 450 nm.

[2] = test system: HSP90 client and apoptosis proteins in vemurafenib-resistant melanoma cell lines; experiment: Western blotting; assay type: cell-based
Source text: Western blotting. Proteins were extracted and blotted for as described previously (Smalley et al., Br. J. Cancer 96:445-9 (2007)). […] The antibodies to IGF1R, PDGFRβ, ARAF, CRAF, phospho-AKT Ser473, total AKT, phospho-ERK, total ERK, cyclin D1, phospho-S6, total S6, phospho-BIM (Ser69), total BIM, HSP70 and MCL-1 were from Cell Signaling Technology (Beverly, Mass.). Anti-26S was purchased from Abcam (Cambridge, Mass.), and the antibody against COT was from Santa Cruz Biotechnology (Santa Cruz, Calif.).

M229R xenografts = experiment: Xenograft experiment; assay type: in vivo, BALB SCID mice; conditions: 100 mg/kg, PO, 3× week, 15 days
Protocol: Xenograft experiments. BALB SCID mice (The Jackson Laboratory, Bar Harbor, Me.) were subcutaneously injected with 2.5×10^6 cells per mouse (resuspended in 111 μL L-15 media, 10 mM HEPES, 37.5 μL Matrigel). Tumors were grown to approximately 100 mm^3 prior to dosing. Mice were treated with either 100 mg XL888/kg (n=5) or an equivalent volume of vehicle (10 mM HCl), 3 times per week by oral gavage. Mouse weights and tumor volumes (L×W2/2) were measured 3 times per week. Upon completion of the experiment, vehicle and drug treated tumor biopsies were processed for LC-MRM analysis (as above).

CC[C@@H](C)Nc1cc(C(=O)N[C@@H]2C[C@H]3CC[C@@H](C2)N3c2ccc(C(=O)C3CC3)cn2)c(C)cc1C(N)=O [XL888, 5-((R)-sec-butylamino)-N1-((1R,3s,5S)-8-(5-(cyclopropanecarbonyl)pyridin-2-yl)-8-azabicyclo[3.2.1]octan-3-yl)-2-methylterephthalamide]
cell death in 3D spheroids [1]: effective at inducing cell death | colony formation (melanoma cell lines): no signs of colony formation | 26S proteasome, Western blot ([2]; 300 nM, 48 hours): partly degrade the 26S proteasome | BIM phosphorylation at Ser69 ([2]; 300 nM, 48 hours, all cell lines tested apart from M249R): decreased BIM phosphorylation at Ser69 | client protein degradation and signaling ([2]; 300 nM, 48 hours, all cell lines with acquired BRAF inhibitor resistance): degradation of IGF1R, PDGFRβ, ARAF, CRAF and cyclin D1 and the inhibition of AKT, ERK and S6 signaling | BIM expression ([2]; 300 nM, 48 hours, entire cell line panel): increased BIM expression across the entire cell line panel | HSP70 expression, Western blot ([2]; 300 nM, 48 hours, every cell line evaluated): increases in HSP70 expression | expression of Mcl-1, Western blot ([2]; 300 nM, 48 hours, resistance through PDGFRβ, COT overexpression and two unknown mechanisms): marked decrease in the expression of Mcl-1 | COT and cyclin D1 expression ([2]; intrinsically vemurafenib-resistant RPMI7951 and WM39, respectively): degrade both COT and cyclin D1 | regression of established M229R xenografts (M229R xenografts): significantly induce the regression; also recorded: significant levels of tumor regression
